Patent US7932271B2, “Heterocyclic methyl sulfone derivative” (Daiichi Pharmaceutical Co., Ltd., priority 2003, dated 2011)
Counter-ions that a name gives are not always drawn.

melting point | Structure (SMILES)
171 to 172 °C | O=S(=O)(c1ccc(Cl)cc1)C(c1ccccn1)c1cc(F)ccc1F (centres unmarked) [Example 13, 2-[[(4-Chlorophenyl)sulfonyl]-(2,5-difluorophenyl)methyl]pyridine]
219 to 220 °C | NC(=O)/C=C/c1ccc(C(c2cc(F)ccc2F)S(=O)(=O)c2ccc(Cl)cc2)nc1 (centres unmarked) [Example 136, (E)-3-[6-[(4-Chlorophenylsulfonyl)(2,5-difluorophenyl)methyl]pyridin-3-yl]acrylamide]
183 to 184 °C | O=S(=O)(c1ccc(Cl)cc1)C(c1ccc[n+]([O-])c1)c1cc(F)ccc1F (centres unmarked) [Example 51, 3-[(4-Chlorophenylsulfonyl)-(2,5-difluorophenyl)methyl]pyridine-N-oxide]
136 to 137 °C | O=S(=O)(c1ccc(Cl)cc1)C(c1cncnc1)c1cc(F)ccc1F (centres unmarked) [Example 21, 5-[[(4-Chlorophenyl)sulfonyl]-(2,5-difluorophenyl)methyl]pyrimidine]
181 to 183 °C | O=S(=O)(c1ccc(Cl)cc1)C(c1cc(F)ccc1F)c1ncc(CO)cc1F (centres unmarked) [Example 125, [6-(4-Chlorophenylsulfonyl)(2,5-difluorophenyl)methyl-5-fluoropyridin-3-yl]methanol]
179 to 181 °C | O=C(NCCO)c1ccc(C(c2cc(F)ccc2F)S(=O)(=O)c2ccc(Cl)cc2)nc1 (centres unmarked) [Example 140, 6-[(4-Chlorophenylsulfonyl)(2,5-difluorophenyl)methyl]-N-(2-hydroxyethyl)nicotinamide]
164 to 165 °C | O=S(=O)(c1ccc(Cl)cc1)C(c1cc(F)ccc1F)c1cc(CO)ncc1Cl (centres unmarked) [Example 257, [5-Chloro-4-[(4-chlorophenylsulfonyl)(2,5-difluorophenyl)methyl]pyridin-2-yl]methanol]
211 to 212 °C | O=S(=O)(c1ccc(Cl)cc1)C(c1cc[n+]([O-])cc1)c1cc(F)ccc1F (centres unmarked) [Example 52, 4-[(4-Chlorophenylsulfonyl)-(2,5-difluorophenyl)methyl]pyridine-N-oxide]
95 to 97 °C | Fc1ccc(SC(c2cc(F)ccc2F)c2cc(Cl)ncc2Cl)cc1 (centres unmarked) [Example 177, 2,5-Dichloro-4-[(2,5-difluorophenyl)-(4-fluorophenylthio)methyl]pyridine]
243 to 245 °C | O=C(Nc1nccs1)c1cnc(C(c2cc(F)ccc2F)S(=O)(=O)c2ccc(Cl)cc2)c(F)c1 (centres unmarked) [Example 128, 6-(4-Chlorophenylsulfonyl)(2,5-difluorophenyl)methyl-5-fluoro-N-thiazol-2-ylnicotinamide]
147 to 148 °C | O=S(=O)(c1ccc(Cl)cc1)C(c1cc(F)ccc1F)c1cc(Cl)ncc1Cl (centres unmarked) (hydrate or solvate) [Example 57, 2,5-Dichloro-4-[(4-chlorophenylsulfonyl)-(2,5-difluorophenyl)methyl]pyridine 0.5 hydrate]
119 to 120 °C | C=CCOc1cccnc1C(c1cc(F)ccc1F)S(=O)(=O)c1ccc(Cl)cc1 (centres unmarked) [Example 18, 3-Allyloxy-2-[[(4-chlorophenyl)sulfonyl]-(2,5-difluorophenyl)methyl]pyridine]
217 to 218 °C | Cc1ccc(S(=O)(=O)NCC(=O)NCc2ccc(C(c3cc(F)ccc3F)S(=O)(=O)c3ccc(Cl)cc3)nc2)cc1 (centres unmarked) [Example 70, N-[[6-[(4-Chlorophenylsulfonyl)(2,5-difluorophenyl)methyl]pyridin-3-yl]methyl]-2-(4-methylphenylsulfonylamino)acetamide]
103 to 105 °C | CC(=O)NCCCNc1cc(C(c2cc(F)ccc2F)S(=O)(=O)c2ccc(Cl)cc2)c(Cl)cn1 (centres unmarked) [Example 174, N-[3-[[5-Chloro-4-[(4-chlorophenylsulfonyl)-(2,5-difluorophenyl)methyl]pyridin-2-yl]amino]propyl]acetamide]
204 to 206 °C | Nc1cc(C(c2cc(F)ccc2F)S(=O)(=O)c2ccc(Cl)cc2)c(Br)cn1 (centres unmarked) [Example 232, [5-Bromo-4-[(4-chlorophenylsulfonyl)(2,5-difluorophenyl)methyl]pyridin-2-yl]amine]
200 to 201 °C | O=C(O)c1cccc(C(c2cc(F)ccc2F)S(=O)(=O)c2ccc(Cl)cc2)n1 (centres unmarked) [Example 146, 6-[(4-Chlorophenylsulfonyl)(2,5-difluorophenyl)methyl]picolinic acid]
148 to 150 °C | O=S(=O)(c1ccc(Cl)cc1)C(c1cc(F)ccc1F)c1cc(NCCc2ccncc2)ncc1Cl (centres unmarked) [Example 181, 5-Chloro-4-[(4-chlorophenylsulfonyl)(2,5-difluorophenyl)methyl]-2-[2-(pyridin-4-yl)ethylamino]pyridine]
133 to 135 °C | O=S(=O)(c1ccc(Cl)cc1)C(c1ccncc1)C1CCCC1 (centres unmarked) [Example 2, 4-[(4-Chlorophenylsulfonyl)(cyclopentyl)methyl]pyridine]
179 to 180 °C | Cn1c(Cl)cnc1C(c1cc(F)ccc1F)S(=O)(=O)c1ccc(Cl)cc1 (centres unmarked) [Example 29, 2-[[(4-Chlorophenyl)sulfonyl]-(2,5-difluorophenyl)methyl]-1-methyl-5-chloro-1H-imidazole]

melting point | Structure (SMILES)
128 to 129 °C | Fc1ccc(F)c(C(Sc2ccc(Cl)cc2)c2cc(Cl)ncc2Cl)c1 (centres unmarked) [Example 54, 2,5-Dichloro-4-[(4-chlorophenylthio)-(2,5-difluorophenyl)methyl]pyridine]
> 230 °C | O=C1NCCCN1c1cc(C(c2cc(F)ccc2F)S(=O)(=O)c2ccc(Cl)cc2)c(Cl)cn1 (centres unmarked) [Example 190, 1-[5-Chloro-4-[(4-chlorophenylsulfonyl)-(2,5-difluorophenyl)methyl]pyridin-2-yl]tetrahydropyrimidin-2-one]
163 to 166 °C | NCCNc1cc(C(c2cc(F)ccc2F)S(=O)(=O)c2ccc(Cl)cc2)c(Cl)cn1 (centres unmarked) (as salt: hydrochloride) [Example 193, N-[5-Chloro-4-[(4-chlorophenylsulfonyl)-(2,5-difluorophenyl)methyl]pyridin-2-yl]ethane-1,2-diamine dihydrochloride]
78 to 80 °C | O=C1CCCN1CCCNc1cc(C(c2cc(F)ccc2F)S(=O)(=O)c2ccc(Cl)cc2)c(Cl)cn1 (centres unmarked) [Example 169, 1-[3-[[5-Chloro-4-[(4-chlorophenylsulfonyl)-(2,5-difluorophenyl)methyl]pyridin-2-yl]amino]propyl]pyrrolidin-2-one]
158 to 159 °C | COc1ccc(CNc2cc(C(c3cc(F)ccc3F)S(=O)(=O)c3ccc(F)cc3)c(Cl)cn2)cc1OC (centres unmarked) [Example 214, [5-Chloro-4-[(2,5-difluorophenyl)-(4-fluorophenylsulfonyl)methyl]pyridin-2-yl](3,4-dimethoxybenzyl)amine]
157 to 158 °C | O=S(=O)(c1ccc(F)cc1)C(c1cc(F)ccc1F)c1cc(NCCO)ncc1Cl (centres unmarked) [Example 179, 2-[[5-Chloro-4-[(2,5-difluorophenyl)-(4-fluorophenylsulfonyl)methyl]pyridin-2-yl]amino]ethanol]
214 to 217 °C | Cc1cnc(NS(C)(=O)=O)cc1C(c1cc(F)ccc1F)S(=O)(=O)c1ccc(Cl)cc1 (centres unmarked) [Example 212, N-[4-[(4-Chlorophenylsulfonyl)(2,5-difluorophenyl)methyl]-5-methylpyridin-2-yl]methanesulfonamide]
146 to 148 °C | COCCCNc1cc(C(c2cc(F)ccc2F)S(=O)(=O)c2ccc(Cl)cc2)c(Cl)cn1 (centres unmarked) [Example 184]
147 to 148 °C | O=C(O)CCCc1cc(C(c2cc(F)ccc2F)S(=O)(=O)c2ccc(Cl)cc2)c(Cl)cn1 (centres unmarked) [Example 289, 4-[5-Chloro-4-[(4-chlorophenylsulfonyl)(2,5-difluorophenyl)methyl]pyridin-2-yl]butyric acid]
186 to 187 °C | O=S(=O)(Cc1ccc(C(c2cc(F)ccc2F)S(=O)(=O)c2ccc(Cl)cc2)nc1)c1ccc(Cl)cc1 (centres unmarked) [Example 40, 2-[(4-Chlorophenylsulfonyl)-(2,5-difluorophenyl)methyl]-5-[(4-chlorophenylsulfonyl)methyl]pyridine]
200 to 202 °C | O=C(Nc1ccon1)c1cnc(C(c2cc(F)ccc2F)S(=O)(=O)c2ccc(Cl)cc2)c(F)c1 (centres unmarked) [Example 129, 6-(4-Chlorophenylsulfonyl)(2,5-difluorophenyl)methyl-5-fluoro-N-isoxazol-3-ylnicotinamide]
174 to 176 °C | O=C(O)CCc1cnc(C(c2cc(F)ccc2F)S(=O)(=O)c2ccc(Cl)cc2)c(F)c1 (centres unmarked) [Example 133, 3-[6-(4-Chlorophenylsulfonyl)(2,5-difluorophenyl)methyl-5-fluoropyridin-3-yl]propionic acid]
105 to 107 °C | Cc1cnc(C(=O)O)cc1C(c1cc(F)ccc1F)S(=O)(=O)c1ccc(Cl)cc1 (centres unmarked) [Example 209, 4-[(4-Chlorophenylsulfonyl)(2,5-difluorophenyl)methyl]-5-methylpicolinic acid]
208 to 209 °C | O=C(O)c1cc(C(c2cc(F)ccc2F)S(=O)(=O)c2ccc(Cl)cc2)c(F)cn1 (centres unmarked) [Example 201, 4-[(4-Chlorophenylsulfonyl)(2,5-difluorophenyl)methyl]-5-fluoropicolinic acid]
113 to 115 °C | O=S(=O)(c1ccc(Cl)cc1)C(c1cc(F)ccc1F)c1cc(NCCOCCO)ncc1Cl (centres unmarked) [Example 183, 2-[2-[5-Chloro-4-[(4-chlorophenylsulfonyl)(2,5-difluorophenyl)methyl]pyridin-2-ylamino]ethoxy]ethanol]
176 to 177 °C | CN1CCC(C(c2ccncc2)S(=O)(=O)c2ccc(Cl)cc2)CC1 (centres unmarked) [Example 5, 4-[(4-Chlorophenylsulfonyl)(1-methylpiperidin-4-yl)methyl]pyridine]
193 to 194 °C | CCOC(=O)C(=O)NCc1ccc(C(c2cc(F)ccc2F)S(=O)(=O)c2ccc(Cl)cc2)nc1 (centres unmarked) [Example 69, Ethyl 2-[[6-[(4-Chlorophenylsulfonyl)(2,5-difluorophenyl)methyl]pyridin-3-yl]methylamino]-2-oxoacetate]
243 to 245 °C | CN1CCN(C(=O)CCc2cnc(C(c3cc(F)ccc3F)S(=O)(=O)c3ccc(Cl)cc3)c(F)c2)CC1.Cl (centres unmarked)
193 to 196 °C | CC(C)(C)OC(=O)N1CCC(C(c2cc(F)ccc2F)S(=O)(=O)c2ccc(Cl)cc2)CC1 (centres unmarked) [Example 37, t-Butyl 4-[[(4-chlorophenyl)sulfonyl](2,5-difluorophenyl)methyl]-1-piperidinecarboxylate]
